Test results published in ChEMBL document CHEMBL5096167, “Recent advances in development of hetero-bivalent kinase inhibitors” (Eur J Med Chem, 2021).
*1 amine or outer side, *2 acyl side, *3 side chain or, on linkers, in order; H or OH if unused. Where a SMILES comes first, the peptide text is derived from it. The star is where a group is joined. X1 = Brc1c(Br)c(Br)c2[nH]c(NCCCN*)nc2c1Br; Suc = O=C(CCC(=O)[*:2])[*:1]

Assays:
[1] = biological target: T1, Serine/threonine-protein kinase haspin (Homo sapiens, UniProt Q8TF76)
T1 sequence (Q8TF76 whole entry): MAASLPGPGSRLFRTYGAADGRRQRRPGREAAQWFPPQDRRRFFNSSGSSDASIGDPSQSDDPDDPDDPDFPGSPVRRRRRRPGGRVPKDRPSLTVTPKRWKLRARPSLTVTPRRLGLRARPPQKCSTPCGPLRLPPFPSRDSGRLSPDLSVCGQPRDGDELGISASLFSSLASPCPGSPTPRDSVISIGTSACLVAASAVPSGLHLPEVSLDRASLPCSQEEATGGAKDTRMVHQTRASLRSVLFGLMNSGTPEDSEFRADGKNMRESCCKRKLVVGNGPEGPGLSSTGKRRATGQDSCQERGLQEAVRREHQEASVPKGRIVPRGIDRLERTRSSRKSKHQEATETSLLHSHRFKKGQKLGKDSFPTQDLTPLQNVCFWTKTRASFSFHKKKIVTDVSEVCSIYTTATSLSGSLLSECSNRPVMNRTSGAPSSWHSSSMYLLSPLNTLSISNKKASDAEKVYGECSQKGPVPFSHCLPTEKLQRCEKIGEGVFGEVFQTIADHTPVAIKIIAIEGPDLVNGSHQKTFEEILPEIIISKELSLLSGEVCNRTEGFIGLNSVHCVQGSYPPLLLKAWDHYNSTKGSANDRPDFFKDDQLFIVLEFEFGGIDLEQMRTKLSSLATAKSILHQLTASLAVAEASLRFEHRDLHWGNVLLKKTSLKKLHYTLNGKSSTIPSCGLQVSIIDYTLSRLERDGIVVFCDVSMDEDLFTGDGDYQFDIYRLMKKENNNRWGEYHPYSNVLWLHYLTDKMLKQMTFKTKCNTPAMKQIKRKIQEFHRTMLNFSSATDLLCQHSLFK

[2] = biological target: T1, Serine/threonine-protein kinase haspin; remark: listed apart in the source
[3] = Binding affinity to full length human recombinant PKAc assessed as dissociation constant
[4] = biological target: cAMP-dependent protein kinase catalytic subunit alpha (Homo sapiens, UniProt P17612); assay: Displacement of mAb(D38C6)-BTN from human recombinant PKAc alpha incubated for 15 mins by microplate reader assay
[5] = biological target: cAMP-dependent protein kinase (PKA) (Homo sapiens, UniProt P22694+P17612+P22612)
[6] = biological target: T1, Serine/threonine-protein kinase haspin; remark: listed apart in the source
[7] = Binding affinity to human PKAc beta-S54L mutant assessed as dissociation constant
[8] = biological target: cAMP-dependent protein kinase catalytic subunit beta (Homo sapiens, UniProt P22694); assay: Binding affinity to human wild-type PKAc beta assessed as dissociation constant
[9] = biological target: Casein kinase II subunit alpha (Homo sapiens, UniProt P68400); assay: Inhibition of CK2alpha in human MIA PaCa-2 cells incubated for 5 hrs by western blot analysis; type: cell-based
Chain of Casein kinase II subunit alpha (P68400 whole entry): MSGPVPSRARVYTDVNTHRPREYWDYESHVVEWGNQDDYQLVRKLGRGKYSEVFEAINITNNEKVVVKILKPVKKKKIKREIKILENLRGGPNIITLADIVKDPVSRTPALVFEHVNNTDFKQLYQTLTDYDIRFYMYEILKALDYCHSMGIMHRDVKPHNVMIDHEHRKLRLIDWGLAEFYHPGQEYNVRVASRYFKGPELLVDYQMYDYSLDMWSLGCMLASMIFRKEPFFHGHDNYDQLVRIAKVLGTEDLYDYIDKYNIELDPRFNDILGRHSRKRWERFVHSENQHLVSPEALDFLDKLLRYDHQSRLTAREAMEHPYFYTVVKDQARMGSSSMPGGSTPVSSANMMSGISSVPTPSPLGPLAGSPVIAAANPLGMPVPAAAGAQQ

[10] = Inhibition of CK2alpha2beta2 (unknown origin); set-up: species or system Homo sapiens
[11] = biological target: Proto-oncogene tyrosine-protein kinase Src (Homo sapiens, UniProt P12931); assay: Inhibition of c-Src (unknown origin)
Chain of Proto-oncogene tyrosine-protein kinase Src (P12931 2-536 limits assumed): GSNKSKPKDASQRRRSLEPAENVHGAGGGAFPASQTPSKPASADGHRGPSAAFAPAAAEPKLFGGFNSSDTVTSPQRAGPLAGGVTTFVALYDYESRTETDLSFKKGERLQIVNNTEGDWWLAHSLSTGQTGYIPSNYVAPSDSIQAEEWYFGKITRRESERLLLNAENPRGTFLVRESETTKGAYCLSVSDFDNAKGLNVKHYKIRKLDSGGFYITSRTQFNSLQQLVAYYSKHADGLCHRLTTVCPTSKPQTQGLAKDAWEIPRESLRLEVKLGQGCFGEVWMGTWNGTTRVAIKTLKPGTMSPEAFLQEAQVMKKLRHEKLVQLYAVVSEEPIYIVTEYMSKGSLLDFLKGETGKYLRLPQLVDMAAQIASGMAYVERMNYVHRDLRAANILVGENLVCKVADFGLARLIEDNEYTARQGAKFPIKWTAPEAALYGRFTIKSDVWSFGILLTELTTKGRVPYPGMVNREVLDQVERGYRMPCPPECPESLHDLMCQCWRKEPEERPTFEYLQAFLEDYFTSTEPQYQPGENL

Molecule C[C@H](N)C(=O)N[C@@H](CCCNC(=N)N)C(=O)N[C@@H](CCCCNC(=O)C[C@@H](NC(=O)CCCCCNC(=O)[C@H]1O[C@@H](n2cc(I)c3c(N)ncnc32)[C@H](O)[C@@H]1O)C(=O)O)C(=O)N[C@@H](CCCNC(=N)N)C(=O)N[C@@H](CCC(=O)O)C(=O)N[C@H](C(=O)N[C@@H](C)C(=O)N[C@H](CCCCN)C(N)=O)[C@H](C)O has a Kd [1] of 0.019 nM, a Kd [2] of 0.019 nM and a Selectivity Index (Homo sapiens) of 4900. For the same molecule, the Kd [3] was 94 nM.

Work on C[C@@H](NC(=O)CCCCCNC(=O)c1ccc(-c2ccnc(N)n2)[se]1)C(=O)N[C@H](CCCNC(=N)N)C(=O)N[C@H](CCCNC(=N)N)C(=O)N[C@H](CCCNC(=N)N)C(=O)N[C@H](CCCNC(=N)N)C(=O)N[C@H](CCCNC(=N)N)C(=O)N[C@H](CCCNC(=N)N)C(=O)N[C@H](CCCCN(C)c1ccc2c(-c3ccc(C(=O)[O-])cc3C(=O)O)c3ccc(=[N+](C)C)cc-3oc2c1)C(N)=O yielded a Kd [4] of 0.042 nM.

Molecule CO[C@@H]1[C@H](N(C)C(=O)CCC(=O)O)C[C@H]2O[C@]1(C)n1c3ccccc3c3c4c(c5c6ccccc6n2c5c31)C(=O)NC4 has an IC50 [5] of 159 nM.

For C[C@H](N)C(=O)N[C@@H](CCCNC(=N)N)C(=O)N[C@@H](CCCCNC(=O)C[C@@H](NC(=O)CCCCCNC(=O)[C@H]1O[C@@H](n2cnc3c(N)ncnc32)[C@H](O)[C@@H]1O)C(N)=O)C(=O)N[C@@H](CCCCN)C(=O)N[C@@H](CCC(N)=O)C(=O)N[C@H](C(=O)N[C@@H](C)C(=O)N[C@@H](CCCNC(=N)N)C(=O)N[C@@H](CCCNC(=N)N)C(=O)N[C@@H](CCCNC(=N)N)C(=O)N[C@@H](CCCNC(=N)N)C(=O)N[C@@H](CCCNC(=N)N)C(=O)N[C@@H](CCCNC(=N)N)C(N)=O)[C@H](C)O, the Kd [6] was 0.42 nM, the Selectivity Index (Homo sapiens) was 90 and the Kd [3] was 38 nM.

In the case of N=C(N)NCCCC(NC(=O)CCCCCNC(=O)C(Cc1c[nH]c2ccccc12)NC(=O)CCCCCNC(=O)c1ccc(-c2ccnc(N)n2)[se]1)C(=O)NC(CCCNC(=N)N)C(=O)NC(CCCNC(=N)N)C(=O)NC(CCCNC(=N)N)C(=O)NC(CCCNC(=N)N)C(=O)NC(CCCNC(=N)N)C(=O)NC(CCCCN)C(N)=O (stereo unspecified), the Kd [7] is reported as 0.019 nM and the Kd [8] is reported as 0.013 nM.

With Nc1ncnc2c1ncn2[C@@H]1O[C@H](C(=O)O)[C@@H](O)[C@H]1O [5'-CARBOXY ADENOSINE] the Kd [1] was > 15000 nM.

For CC(=O)OCOC(=O)CN(CC(=O)OCOC(C)=O)C(=O)CN(CC(=O)OCOC(C)=O)C(=O)CN(CC(=O)OCOC(C)=O)C(=O)CCCCCCCn1cnc2c(Br)c(Br)c(Br)c(Br)c21, the IC50 [9] was 47 nM.

For NCCCNc1nc2c(Br)c(Br)c(Br)c(Br)c2[nH]1, the IC50 [10] was 130 nM.

Work on C#CCCC(=O)N1CCN(c2cc(Nc3cc(C4CC4)[nH]n3)nc(C)n2)CC1 yielded an IC50 [11] of 2900 nM.

For O=C(O)CC[C@H](NC(=O)[C@H](CCC(=O)O)NC(=O)[C@H](CCC(=O)O)NC(=O)[C@H](CCC(=O)O)NC(=O)CCC(=O)NCCCNc1nc2c(Br)c(Br)c(Br)c(Br)c2[nH]1)C(=O)O ({X1-Suc}-EEEE-OH), the IC50 [10] was 25 nM.
